# Reference: patent US20080234300A1, “Pyrimido[5,4-c] Quinoline-2, 4-Diamine Derivatives and Methods of Use Thereof” (WYETH, priority 2007, published 2008)
# pIC50: −log10 of the molar value.
# Biological target: T1, PDK-1 (Homo sapiens, UniProt O15530)
# T1 sequence (O15530 1-556): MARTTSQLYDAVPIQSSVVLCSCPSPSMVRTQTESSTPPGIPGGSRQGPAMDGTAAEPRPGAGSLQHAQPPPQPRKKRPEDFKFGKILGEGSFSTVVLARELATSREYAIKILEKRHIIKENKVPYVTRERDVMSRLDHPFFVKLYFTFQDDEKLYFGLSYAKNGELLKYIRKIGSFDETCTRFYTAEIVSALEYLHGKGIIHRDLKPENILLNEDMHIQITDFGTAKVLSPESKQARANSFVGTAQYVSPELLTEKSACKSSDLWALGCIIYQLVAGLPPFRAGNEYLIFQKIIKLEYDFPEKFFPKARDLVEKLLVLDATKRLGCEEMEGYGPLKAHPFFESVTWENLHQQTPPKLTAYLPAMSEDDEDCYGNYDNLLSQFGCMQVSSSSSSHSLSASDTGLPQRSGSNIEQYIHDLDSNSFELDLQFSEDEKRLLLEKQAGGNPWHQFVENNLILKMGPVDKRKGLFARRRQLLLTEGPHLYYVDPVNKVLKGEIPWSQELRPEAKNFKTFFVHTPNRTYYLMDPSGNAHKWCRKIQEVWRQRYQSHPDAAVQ
# Assay: PDK-1 kinase inhibition ELISA assay (phosphorylation of His6-tagged SGK1 S422D by PDK-1)
# Format: biochemical
# Settings: in vitro ELISA; phosphorylation of His6-tagged SGK1 (S422D) on Thr256 by PDK-1, 20 minutes, chemiluminescent detection
# Protocol: The ability of an illustrative Pyrimido[5,4-c]quinoline-2,4-diamine Derivative to inhibit PDK-1 in vitro can be determined using an ELISA assay as described in Kobayashi et al., Biochem. J. 339:319-328 (1999) and Park et al., EMBO J. 18:3024-3033 (1999).
# In an in vitro assay, His6-tagged SGK1 with S422D mutation (formerly Upstate Biotech, now Millipore) on Thr256 is allowed to be phosphorylated by PDK-1 in the presence of a Pyrimido[5,4-c]quinoline-2,4-diamine Derivative. After 20 minutes, the reaction is quenched via the addition of urea. The His6-tagged SGK1 is then bound to 96 well Ni-NTA HisSorb plates (Quiagen, Inc.) and phosphorylated SGK1 is quantitatively detected using rabbit derived anti-phospho SGK antibody (Cell Signaling Technology) as the primary antibody and horseradish peroxidase (HRP)— coupled anti-rabbit antibody (formerly Zymed, now Invitrogen) as the secondary antibody. HRP is then detected using a chemiluminescent substrate (Pierce Chemical Co.).
# IC50 values of illustrative Pyrimido[5,4-c]quinoline-2,4-diamine Derivatives, shown in Table 4, are calculated using LSW Data Analysis package add-in for Excel (Microsoft).
row,Compound,pIC50
1,"COCCOc1cc2ncc3c(N)nc(N4CCC(O)C4)nc3c2cc1OC (stereo not shown) [Compound Ia-6, 1-[4-Amino-9-methoxy-8-(2-methoxyethoxy)pyrimido[5,4-c]quinolin-2-yl]pyrrolidin-3-ol]",4.44
2,"COc1cc2ncc3c(N)nc(N)nc3c2cc1OC [Ia-1, 8,9-dimethoxypyrimido[5,4-c]quinoline-2,4-diamine]",4.91
3,"CCOc1cc2ncc3c(N)nc(N)nc3c2cc1OCC [Ia-2, 8,9-diethoxypyrimido[5,4-c]quinoline-2,4-diamine]",4.75
4,"CCOc1cc2ncc3c(N)nc(N4CCOCC4)nc3c2cc1OCC [Ia-4, 8,9-diethoxy-2-morpholin-4-ylpyrimido[5,4-c]quinolin-4-amine]",4.25
5,"COCCOc1cc2ncc3c(N)nc(N4CCOCC4)nc3c2cc1OC [Ia-5, 9-methoxy-8-(2-methoxyethoxy)-2-morpholin-4-ylpyrimido[5,4-c]quinolin-4-amine]",< 3.70
6,"COCCOc1cc2ncc3c(N)nc(N4CCN(C)CC4)nc3c2cc1OC [Ia-7, 9-methoxy-8-(2-methoxyethoxy)-2-(4-methylpiperazin-1-yl)pyrimido[5,4-c]quinolin-4-amine]",< 3.70
7,"COCCOc1cc2ncc3c(N)nc(N(C)C)nc3c2cc1OC [Ia-8, 9-methoxy-8-(2-methoxyethoxy)-N2,N2-dimethylpyrimido[5,4-c]quinoline-2,4-diamine]",5.03
8,"CCNc1nc(N)c2cnc3cc(OCCOC)c(OC)cc3c2n1 [Ia-9, N2-ethyl-9-methoxy-8-(2-methoxyethoxy)pyrimido[5,4-c]quinoline-2,4-diamine]",< 3.70
9,"COCCOc1cc2ncc3c(N)nc(N4CCC5(CC4)OCCO5)nc3c2cc1OC [Ia-10, 2-(1,4-dioxa-8-azaspiro[4.5]dec-8-yl)-9-methoxy-8-(2-methoxyethoxy)pyrimido[5,4-c]quinolin-4-amine]",4.30
10,"COCCOc1cc2ncc3c(N)nc(N4CCC(=O)CC4)nc3c2cc1OC [Ia-13, 1-[4-amino-9-methoxy-8-(2-methoxyethoxy)pyrimido[5,4-c]quinolin-2-yl]piperidin-4-one]",< 3.70
11,"COCCOc1cc2ncc3c(N)nc(N4CCCC4)nc3c2cc1OC [Ia-14, 9-methoxy-8-(2-methoxyethoxy)-2-pyrrolidin-1-ylpyrimido[5,4-c]quinolin-4-amine]",5.18
12,"COCCOc1cc2ncc3c(N)nc(N4CCC[C@@H]4COC)nc3c2cc1OC [Ia-15, 9-methoxy-8-(2-methoxyethoxy)-2-[(2R)-2-(methoxymethyl)pyrrolidin-1-yl]pyrimido[5,4-c]quinolin-4-amine]",5.67
13,"COCCOc1cc2ncc3c(N)nc(N4CCC[C@H]4COC)nc3c2cc1OC [Ia-16, 9-methoxy-8-(2-methoxyethoxy)-2-[(2S)-2-(methoxymethyl)pyrrolidin-1-yl]pyrimido[5,4-c]quinolin-4-amine]",4.40
14,"COCCOc1cc2ncc3c(N)nc(NC4CCCCC4)nc3c2cc1OC [Ia-17, N2-cyclohexyl-9-methoxy-8-(2-methoxyethoxy)pyrimido[5,4-c]quinoline-2,4-diamine]",5.27
15,"COCCOc1cc2ncc3c(N)nc(N4CCN(c5ccccc5)CC4)nc3c2cc1OC [Ia-18, 9-methoxy-8-(2-methoxyethoxy)-2-(4-phenylpiperazin-1-yl)pyrimido[5,4-c]quinolin-4-amine]",3.96
16,"COCCOc1cc2ncc3c(N)nc(N4CCOc5ccccc5C4)nc3c2cc1OC [Ia-20, 2-(2,3-dihydro-1,4-benzoxazepin-4(5H)-yl)-9-methoxy-8-(2-methoxyethoxy)pyrimido[5,4-c]quinolin-4-amine]",4.08
